“Also recorded” adds a separate entry of the source. No end group written: not given here.
Experiments:
platelets = test: Platelet adhesion to protein-coated Vena8 channels under flow; type: cell-based, human; settings: for Platelet adhesion to fibrinogen-coated plates after pre-incubation of platelets with peptide / Platelet adhesion to fibronectin-coated plates after pre-incubation of platelets with peptide: PRP pre-incubated with 2 mM peptide 20 min
Procedure: Platelet adhesion experiments were performed using the Vena8 flow chamber described above. Fibrinogen and fibronectin (Sigma) were dissolved in PBS to a final concentration of 200 mcg/ml. Channels of the Vena8 chips were incubated at room temperature in a humidified chamber for 2 hours with the protein solution, autologous plasma, or PBS alone. The channels were washed with 5× the volume RPMI. Platelet-rich-plasma was then perfused through the protein-coated channel at the indicated shear-stress, held constant. For each channel, still images were acquired exactly 90 seconds into the experiment at 4 pre-defined low power fields located along the flow path (fields were centered at 2500, 7500, 12500, and 17500 microns from the start point of infusion).
Some experiments involved pre-treating platelet-rich-plasma with protein fragments prior to infusion through the channels. Small RGD peptides, containing the amino-acid sequence Arg-Gly-Asp-Ser; DRG peptides, contain the amino-acid sequence Ser-Asp-Gly-Arg; or fragment 400-411 of fibrinogen, containing the amino-acid sequence His-His-Leu-Gly-Gly-Ala-Lys-Gln-Ala-Gly-Asp-Val, were incubated at a concentration of 2 mM with PRP for 20 minutes at room temperature. The PRP was then perfused through the channels as previously described.

[1] = tested on: monocyte-platelet interactions; test: Monocyte-platelet interactions on platelet-coated plates under flow (receptor-ligand studies); type: cell-based, human
Procedure: Platelet-coated Vena8 channels were pre-treated with either 40 μg/ml anti-P-selectin (R&D Systems) or 40 μg/ml of an isotype control for 30 minutes at room temperature, then washed with 5× the volume RPMI. Mononuclear cell suspensions were pre-treated with either RGD or DGR peptides at a concentration of 2.5 mM. Video samples lasting 400 frames (26.3 seconds) were recorded 60 seconds after commencement of flow using a lower power field of view spanning 400 microns and centered at 7500 microns from the flow start point.
The monocyte-platelet interactions observed on video were divided into two categories: (1) short-acting, arbitrarily defined as contact occurring for less than 3 seconds (46 frames), and (2) long-acting, defined as contact longer than 3 seconds, including stable binding. Since it had been previously determined that the platelets in the ECP system were in an activated state, and that activated platelets express an array of proteins including P-selectin and RGD containing proteins (e.g. fibronectin, fibrinogen, and vitronectin), it was sought to determine the involvement, if any, of these proteins in either short or long-duration interactions. Plates were pre-coated with platelets, and four conditions tested: (1) platelets pre-treated with an irrelevant isotype control, and monocytes untreated (P+RGD+); (2) platelets pre-treated with an irrelevant isotype control, and monocytes pre-incubated with RGD peptides (P+RGD−); (3) platelets pre-treated with anti-P-selectin, and monocytes untreated (P−RGD+); (4) platelets pre-treated with anti-P-selectin, and monocytes pre-treated with RGD peptides (P−RGD−). It was assumed that pre-treating monocytes with RGD peptides should result in a decreased in the number of free RGD-recognizing receptors available to interact with RGD-containing proteins expressed by the platelets. […] As shown by FIG. 6, both short-acting and long-acting interactions were maximal when neither RGD nor P-selectin were blocked (P+RGD+); the level of interaction in all other conditions was expressed as a percentage of this maximum. […]

[2] = molecular target: β1 integrin (CD29), active (open) conformation, on monocytes (human) (UniProt P05556); test: flow cytometry of monocytes before passage through the plates
β1 integrin (CD29), active (open) conformation, on monocytes (human), sequence (P05556 21-798): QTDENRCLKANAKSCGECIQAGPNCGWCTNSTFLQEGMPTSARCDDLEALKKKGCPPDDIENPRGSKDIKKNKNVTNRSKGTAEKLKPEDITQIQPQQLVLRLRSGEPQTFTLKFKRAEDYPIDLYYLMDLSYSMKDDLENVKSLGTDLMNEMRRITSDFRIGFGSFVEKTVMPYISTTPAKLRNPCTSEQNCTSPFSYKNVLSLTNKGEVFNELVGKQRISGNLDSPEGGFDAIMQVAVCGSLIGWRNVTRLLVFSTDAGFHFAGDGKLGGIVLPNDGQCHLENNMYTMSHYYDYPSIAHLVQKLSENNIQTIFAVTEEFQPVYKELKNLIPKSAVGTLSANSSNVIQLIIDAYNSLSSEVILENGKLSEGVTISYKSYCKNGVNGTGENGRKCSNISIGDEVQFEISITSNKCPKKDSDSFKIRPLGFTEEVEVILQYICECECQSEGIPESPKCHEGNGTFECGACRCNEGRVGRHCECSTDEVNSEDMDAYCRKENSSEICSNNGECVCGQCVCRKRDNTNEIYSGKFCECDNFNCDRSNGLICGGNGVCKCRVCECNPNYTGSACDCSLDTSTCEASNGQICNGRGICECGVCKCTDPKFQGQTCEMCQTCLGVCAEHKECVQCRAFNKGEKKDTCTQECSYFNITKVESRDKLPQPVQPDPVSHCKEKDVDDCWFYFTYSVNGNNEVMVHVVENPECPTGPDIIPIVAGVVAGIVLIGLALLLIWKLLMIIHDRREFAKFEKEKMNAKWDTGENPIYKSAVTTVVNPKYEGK

[3] = molecular target: β1 integrin (CD29), active (open) conformation, on monocytes (human) (UniProt P05556); test: flow cytometry of monocytes immediately after flow over platelet-coated plates, low number of platelet interactions
[4] = molecular target: β1 integrin (CD29), active (open) conformation, on monocytes (human) (UniProt P05556); test: flow cytometry of monocytes immediately after flow over platelet-coated plates, high number of platelet interactions
GILZ = GILZ mRNA expression in CD11c+ MoDC (quantitative real-time PCR); type: cell-based, human; settings: relative to untreated MoDC cultured alone; 24 hr (FIG. 13B); dex 100 nM; PUVA 100 ng/mL, 1 J/cm^2
Procedure: Monocytes were cultured at a density of 5×10^6 cells/mL in 6- and 12-well polystyrene tissue culture plates at 37° C. and 5% CO2 in RPMI-1640 (Gibco) supplemented with heat-inactivated 15% AB serum (Gemini) and 1% penicillin/streptomycin (now referred to as complete media). 800 IU/mL recombinant human GM-CSF (R&D Systems) and 1000 IU/mL recombinant human IL-4 (R&D Systems) were added to cultures for 36 hr to induce monocyte to DC differentiation as described.
Non-adherent cells (purity: 66.0±4.5% CD3^+) removed during plastic adherence will now be generally referred to as lymphocytes. Lymphocytes were treated with 8-MOP (100 ng/mL) and UVA (1 J/cm^2), washed with PBS, and co-cultured in complete media at 37° C. and 5% CO2 with either PUVA-treated or untreated-MoDC in a ratio of 5 or 10 lymphocytes to 1 MoDC. […] 24 hr after LPS stimulation, cells were harvested for RNA isolation and immunophenotyping, and supernatants were collected for cytokine quantification.
RNA was isolated from CD11c^+ MoDC using QIAShredder columns (QIAGEN) and the RNeasy Mini Kit (QIAGEN) with on-column Dnase I treatment (QIAGEN). RNA yield and purity were assessed using a NanoDrop ND-1000 spectrophotometer. cDNA was obtained using the High Capacity cDNA Reverse Transcription Kit (Applied Biosystems) in a 96-well thermocycler (MJ Research PTC-200). […]

MoDC [5] = test: Cytokine quantification in MoDC supernatants after LPS stimulation (magnetic bead multiplex); type: cell-based, human; settings: after LPS; untreated MoDC 6.7
Procedure: Lymphocytes were treated with 8-MOP (100 ng/mL) and UVA (1 J/cm^2), washed with PBS, and co-cultured in complete media at 37° C. and 5% CO2 with either PUVA-treated or untreated-MoDC in a ratio of 5 or 10 lymphocytes to 1 MoDC. MoDC treated for 24 hr with 100 nM dexamethasone (Sigma) served as the positive control group. After 24 hr, cells were harvested and MoDC were re-purified. […] CD11c^+ MoDC were re-plated at 0.5-1.0×10^6 cells/mL in complete media and stimulated with 100 ng/mL LPS (Sigma). 24 hr after LPS stimulation, cells were harvested for RNA isolation and immunophenotyping, and supernatants were collected for cytokine quantification.
(§1) Culture supernatants were analyzed in a multiplex format utilizing magnetic beads to IL-6, IL-8, IL-10, IL-12p70, IFN-γ, TNF-α, RANTES, MCP-1, and MIP-1β (BioRad Laboratories). For siRNA experiments, supernatants were analyzed with enzyme-linked immunosorbent assay (ELISA) kits for IL-10 (R&D Systems) and IL-12p70 (Enzo Life Science). All samples and standards were run in duplicate and analyzed using the LUMINEX 200 (LUMINEX), or the BioTek EL800 (BioTek).

MoDC [6] = test: IL-10 and IL-12p70 ELISA in siRNA experiments; type: cell-based, human; settings: siRNA experiment, not transfected
Procedure: Silencer select pre-designed and validated GILZ siRNA (Invitrogen), with off-target prediction algorithms, was used to knockdown GILZ expression. Mo-DC were transfected using Lipofectamine RNAiMAX Reagent (Invitrogen). RNAi duplex and lipofectamine reagent were incubated together for 20 min, then added to MoDC cultures and incubated for 2 hr at 37° C. and 5% CO2. Transfected MoDC were treated in an identical fashion as described for the MoDC/lymphocyte co-cultures. MoDC were also transfected with scramble siRNA.
as §1

[7] = molecular target: RGD-recognizing receptors (on monocytes); test: cell-based or functional assay
[8] = 0.5 dyne/cm2, relative to P+RGD+ maximum

Molecule: Arg-Gly-Asp-Ser (RGDS; printed: Arg-Gly-Asp-Ser) [RGD peptides, small RGD peptides]
- Platelet adhesion to fibrinogen-coated plates after pre-incubation of platelets with peptide (platelets): not significantly altered
- Platelet adhesion to fibronectin-coated plates after pre-incubation of platelets with peptide (platelets): decreased adhesion significantly
- Long-duration (>3 s) monocyte-platelet interactions [1, 8]: significant decrease
- Short-duration (<3 s) monocyte-platelet interactions [1, 8]: did not significantly alter; also recorded: no change
- Decrease of long-duration monocyte-platelet interactions ([1]; monocytes pre-incubated with RGD peptides 2.5 mM (P+RGD−)): 44%

Molecule: anti-CD29 HUTS-21 (BD Biosciences) (antibody)
- percent of monocytes that bound the antibody (baseline integrin activation) [2]: < 10%
- percent of monocytes that bound the antibody (β1 in the active form) [3]: 9%
- percent of monocytes that bound the antibody (β1 in the active form) [4]: 71%

Molecule: fibrinogen
- Platelet adhesion to plates coated with the protein (platelets; coating 200 mcg/ml, wall shear stress 0.2 to 6.0 dyne/cm^2): highest concentrations of platelets adhered

Molecule: HHLGGAKQAGDV [gamma fragments, gamma component of fibrinogen, amino acids 400-411]
- Platelet adhesion to fibrinogen-coated plates after pre-incubation of platelets with peptide (platelets): decreased
- Platelet adhesion to fibrinogen-coated plates after pre-incubation of platelets with peptide (platelets; listed as peptide fragments corresponding to amino acids 400-411 of fibrinogen): significantly decreased
- Platelet adhesion to fibronectin-coated plates after pre-incubation of platelets with peptide (platelets): had no effect

Molecule: C[C@@H]1C[C@H]2[C@@H]3CCC4=CC(=O)C=C[C@]4(C)[C@@]3(F)[C@@H](O)C[C@]2(C)[C@@]1(O)C(=O)CO [dexamethasone]
- GILZ up-regulation, MoDC cultured alone (GILZ): 4.29 fold
- Ratio of IL-10 to IL-12p70, MoDC cultured alone (MoDC [5]): 67.7
- IL-10 to IL-12p70 ratio, non-transfected MoDC cultured alone (MoDC [6]): 15.3

Molecule: RGDS [RGD peptides, containing the amino-acid sequence Arg-Gly-Asp-Ser]
- long-duration monocyte-platelet interactions under flow (video microscopy) [7]: 44%

Source: patent US20160298082A1, “METHOD FOR OBTAINING IMMUNO-STIMULATORY DENDRITIC CELLS” (TRANSIMMUNE AG, priority 2013, published 2016)
